The text below walks through data of paper PMC9196137 (SLAS discovery : advancing life sciences R & D, 2022).

The target in the experiment is Mcm2–7 complex. Put plainly: thermal shift assay. The class given is binding, Saccharomyces cerevisiae.

Turning to `CNC(=O)c1cc2c(cn1)[nH]c1ccccc12` [CMA, β-carboline-3-carboxylic acid N-methylamide], the Kd stood at 119 µM.

As usually defined, the Kd is a measure of binding affinity in units of concentration.
